Laboratory results from patent US11866450B2, “Modulators of Cystic Fibrosis Transmembrane Conductance regulator, pharmaceutical compositions, methods of treatment, and process for making the modulators” (priority 2018, dated 2024).

Molecular target: CFTR-mediated chloride transport (Homo sapiens, UniProt P13569)
Type: cell-based
Details: enteroid cells incubated with test compound 18-24 hours, acute 10 μM forskolin and 300 nM Compound III; for Max. Activity: % of chloride transport with 3 μM Compound A, 3 μM Compound II and 300 nM acute Compound III triple combination control
Outline: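 Human intestinal enteroid cells incubated with compound 18–24 h at 37° C., then membrane potential dye (FLIPR) read 15 min after chloride-free stimulation with 10 μM forskolin, 100 μM IBMX and 300 nM Compound III. AUC expressed as % of triple-combination control (3 μM Compound A, 3 μM Compound II, 300 nM Compound III).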

CFTR-mediated chloride transport, sequence (P13569 whole entry, looked up): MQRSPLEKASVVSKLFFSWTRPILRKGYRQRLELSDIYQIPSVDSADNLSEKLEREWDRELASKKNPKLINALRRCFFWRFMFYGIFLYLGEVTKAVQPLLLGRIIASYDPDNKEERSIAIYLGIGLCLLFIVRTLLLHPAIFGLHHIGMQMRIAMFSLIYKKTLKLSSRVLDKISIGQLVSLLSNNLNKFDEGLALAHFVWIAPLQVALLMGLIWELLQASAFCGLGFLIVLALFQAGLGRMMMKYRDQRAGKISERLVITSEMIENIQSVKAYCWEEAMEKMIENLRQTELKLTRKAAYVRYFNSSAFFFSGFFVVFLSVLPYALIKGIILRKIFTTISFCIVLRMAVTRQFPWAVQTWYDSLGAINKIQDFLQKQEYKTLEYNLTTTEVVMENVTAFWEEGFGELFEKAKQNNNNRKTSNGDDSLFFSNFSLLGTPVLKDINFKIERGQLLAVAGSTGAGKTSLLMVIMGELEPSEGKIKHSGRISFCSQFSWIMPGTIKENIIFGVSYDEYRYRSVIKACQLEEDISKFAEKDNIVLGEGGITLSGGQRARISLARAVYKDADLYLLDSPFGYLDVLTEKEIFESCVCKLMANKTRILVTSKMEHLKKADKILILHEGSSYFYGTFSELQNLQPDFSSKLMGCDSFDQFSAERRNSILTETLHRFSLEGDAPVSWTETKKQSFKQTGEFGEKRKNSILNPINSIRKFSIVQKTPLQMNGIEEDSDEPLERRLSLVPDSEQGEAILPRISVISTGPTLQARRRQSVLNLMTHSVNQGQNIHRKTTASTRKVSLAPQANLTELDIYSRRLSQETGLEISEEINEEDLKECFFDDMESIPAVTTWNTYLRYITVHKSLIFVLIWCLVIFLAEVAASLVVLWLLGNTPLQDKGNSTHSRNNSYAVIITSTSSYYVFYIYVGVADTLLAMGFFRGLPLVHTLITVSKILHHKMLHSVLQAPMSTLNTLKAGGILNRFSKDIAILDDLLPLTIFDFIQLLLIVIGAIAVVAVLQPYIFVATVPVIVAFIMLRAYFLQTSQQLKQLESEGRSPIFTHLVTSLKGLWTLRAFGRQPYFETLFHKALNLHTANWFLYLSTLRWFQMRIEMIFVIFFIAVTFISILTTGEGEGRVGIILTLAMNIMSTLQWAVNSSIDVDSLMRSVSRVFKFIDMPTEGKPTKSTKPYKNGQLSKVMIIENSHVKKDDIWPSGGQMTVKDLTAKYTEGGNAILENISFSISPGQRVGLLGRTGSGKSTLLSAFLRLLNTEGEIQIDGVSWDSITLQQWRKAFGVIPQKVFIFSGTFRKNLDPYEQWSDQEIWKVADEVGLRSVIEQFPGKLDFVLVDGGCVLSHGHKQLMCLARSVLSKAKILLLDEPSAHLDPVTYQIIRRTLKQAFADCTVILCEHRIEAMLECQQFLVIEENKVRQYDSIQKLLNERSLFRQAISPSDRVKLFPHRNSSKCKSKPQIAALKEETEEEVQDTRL

| SMILES | EC50 | Max. Activity |
| --- | --- | --- |
| Cc1nn2cc1S(=O)(=O)NC(=O)c1ccc(-n3ccc(OCCC4(C(F)(F)F)CC4)n3)nc1N1C[C@H](CCCC2)CC1(C)C (single isomer, unassigned) [Compound 91, 12,21,21-Trimethyl-4-(3-{2-[1-(trifluoromethyl)cyclopropyl]ethoxy}-1H-pyrazol-1-yl)-10λ^6-thia-1,3,9,13,14-pentaazatetracyclo[17.2.1.111,14.02,7]tricosa-2,4,6,11(23),12-pentaene-8,10,10-trione] | > 3000 nM | + (+ is <30%) |
| Cc1c2cnn1CCC[C@@H]1CN(c3nc(-n4ccc(OCCC5(C(F)(F)F)CC5)n4)ccc3C(=O)NS2(=O)=O)C(C)(C)C1 (single isomer, unassigned) [Compound 113] | 1000 to 3000 nM | ++ (++ is 30-60%) |
| CC1(C)C[C@@H]2CCCNc3cccc(n3)S(=O)(=O)NC(=O)c3ccc(-n4ccc(OC[C@@H](O)CC5(C(F)(F)F)CC5)n4)nc3N1C2 (single isomer, unassigned) [Compound 284] | < 1000 nM | +++ (+++ is >60%) |
| CC1(C)C[C@@H]2CCCNc3cccc(n3)S(=O)(=O)NC(=O)c3ccc(N4CCC(OCCC(C)(C)C(F)(F)F)C4=O)nc3N1C2 (stereo partly drawn) [Compound 237, (14S)-12,12-dimethyl-8-[2-oxo-3-(4,4,4-trifluoro-3,3-dimethylbutoxy)pyrrolidin-1-yl]-2λ^6-thia-3,9,11,18,23-pentaazatetracyclo[17.3.1.111,14.05,10]tetracosa-1(22),5,7,9,19(23),20-hexaene-2,2,4-trione] | < 1000 nM | +++ (+++ is >60%) |
| Cc1c2cnn1CCCC1CN(c3nc(-n4ccc(OCC(C)(C)C(F)(F)F)n4)ccc3C(=O)NS2(=O)=O)C(C)(C)C1 (single isomer, unassigned) [Compound 285, 20,20,22-trimethyl-4-[3-(3,3,3-trifluoro-2,2-dimethylpropoxy)-1H-pyrazol-1-yl]-10λ^6-thia-1,3,9,13,14-pentaazatetracyclo[16.2.1.111,14.02,7]docosa-2,4,6,11(22),12-pentaene-8,10,10-trione] | < 1000 nM | + (+ is <30%) |
| CC1(C)C[C@H]2CCNc3cccc(n3)S(=O)(=O)NC(=O)c3ccc(-n4ccc(OCC5(C(F)(F)F)CC5)n4)nc3N1C2 (single isomer, unassigned) [Compound 6, 7,7-dimethyl-11-(3-{[1-(trifluoromethyl)cyclopropyl]methoxy}-1H-pyrazol-1-yl)-17λ^6-thia-2,8,10,16,22-pentaazatetracyclo[16.3.1.1(5,8).0(9,14)]tricosa-1(21),9(14),10,12,18(22),19-hexaene-15,17,17-trione] | < 1000 nM | +++ (+++ is >60%) |
| CC1(C)CC[C@H]2CCCNc3cccc(n3)S(=O)(=O)NC(=O)c3ccc(-n4ccc(OCC5C6(CC6)C56CC6)n4)nc3N21 (single isomer, unassigned) [Compound 124, 8-[3-({dispiro[2.0.2.1]heptan-7-yl}methoxy)-1H-pyrazol-1-yl]-12,12-dimethyl-2λ^6-thia-3,9,11,19,24-pentaazatetracyclo[18.3.1.05,10.011,15]tetracosa-1(23),5(10),6,8,20(24),21-hexaene-2,2,4-trione] | < 1000 nM | +++ (+++ is >60%) |
| CC1(C)CC[C@H]2CCCNc3cccc(n3)S(=O)(=O)NC(=O)c3ccc(-n4ccc(OCCC(C5CC5)C5CC5)n4)nc3N21 (single isomer, unassigned) [Compound 136, 8-[3-(3,3-dicyclopropylpropoxy)-1H-pyrazol-1-yl]-12,12-dimethyl-2λ^6-thia-3,9,11,19,24-pentaazatetracyclo[18.3.1.05,10.011,15]tetracosa-1(23),5(10),6,8,20(24),21-hexaene-2,2,4-trione] | < 1000 nM | +++ (+++ is >60%) |
| CC(C)(C)CCC[C@H]1CCN(c2ccc3c(n2)N2C[C@@H](CCCNc4cccc(n4)S(=O)(=O)NC3=O)CC2(C)C)C1=O (single isomer, unassigned) [Compound 145] | < 1000 nM | +++ (+++ is >60%) |
| CC(C)(C)CCCN1CCN(c2ccc3c(n2)N2CC(CCCn4ccc(n4)S(=O)(=O)NC3=O)CC2(C)C)C1=O (centres unmarked) [Compound 169, 4-[3-(4,4-dimethylpentyl)-2-oxoimidazolidin-1-yl]-20,20-dimethyl-10λ^6-thia-1,3,9,14,22-pentaazatetracyclo[16.2.1.111,14.02,7]docosa-2,4,6,11(22),12-pentaene-8,10,10-trione] | < 1000 nM | ++ (++ is 30-60%) |
| CC1(C)C[C@H]2C[C@@H](F)CNc3cccc(n3)S(=O)(=O)NC(=O)c3ccc(-n4ccc(OCCC5C6(CC6)C56CC6)n4)nc3N1C2 (single isomer, unassigned) [Compound 309, 8-[3-(2-{Dispiro[2.0.2.1]heptan-7-yl}ethoxy)-1H-pyrazol-1-yl]-16-fluoro-12,12-dimethyl-2λ^6-thia-3,9,11,18,23-pentaazatetracyclo[17.3.1.111,14.05,10]tetracosa-1(22),5,7,9,19(23),20-hexaene-2,2,4-trione] | < 1000 nM | +++ (+++ is >60%) |
| CC1(C)C[C@@H]2CCCNc3cccc(n3)S(=O)(=O)NC(=O)c3ccc(N4CC[C@H](OCCC5(C(F)(F)F)CC5)C4=O)nc3N1C2 (single isomer, unassigned) [Compound 173] | < 1000 nM | +++ (+++ is >60%) |
| CC(C)C(COc1ccn(-c2ccc3c(n2)N2C[C@@H](CC2(C)C)OCCNc2cccc(n2)S(=O)(=O)NC3=O)n1)C(C)C (single isomer, unassigned) [Compound 248, 12,12-dimethyl-8-{3-[3-methyl-2-(propan-2-yl)butoxy]-1H-pyrazol-1-yl}-15-oxa-2λ^6-thia-3,9,11,18,23-pentaazatetracyclo[17.3.1.111,14.05,10]tetracosa-1(23),5(10),6,8,19,21-hexaene-2,2,4-trione] | < 1000 nM | ++ (++ is 30-60%) |
| CC(C)(C)CCO[C@H]1CCN(c2ccc3c(n2)N2C[C@@H](CCCNc4cccc(n4)S(=O)(=O)NC3=O)CC2(C)C)C1=O (single isomer, unassigned) [Compound 171] | < 1000 nM | +++ (+++ is >60%) |
| CC1(C)CC2CCCNc3cccc(n3)S(=N)(=O)NC(=O)c3ccc(-n4ccc(OCCC5(C(F)(F)F)CC5)n4)nc3N1C2 (centres unmarked) [Compound 262, 2-imino-12,12-dimethyl-8-(3-{2-[1-(trifluoromethyl)cyclopropyl]ethoxy}-1H-pyrazol-1-yl)-2λ^6-thia-3,9,11,18,23-pentaazatetracyclo[17.3.1.111,14.05,10]tetracosa-1(23),5,7,9,19,21-hexaene-2,4-dione] | < 1000 nM | +++ (+++ is >60%) |
| CC1(C)C[C@@H]2CCCNc3cccc(n3)S(=O)(=O)NC(=O)c3ccc(N4CC[C@H](CCCC5(C(F)(F)F)CC5)C4=O)nc3N1C2 (single isomer, unassigned) [Compound 174] | < 1000 nM | +++ (+++ is >60%) |
| CC1(C)C[C@@H]2CN1c1nc(-n3ccc(OCCCC4(C(F)(F)F)CC4)n3)ccc1C(=O)NS(=O)(=O)c1cccc(n1)NCCO2 (single isomer, unassigned) [Compound 159, 12,12-dimethyl-8-(3-{3-[1-(trifluoromethyl)cyclopropyl]propoxy}-1H-pyrazol-1-yl)-15-oxa-2λ^6-thia-3,9,11,18,23-pentaazatetracyclo[17.3.1.111,14.05,10]tetracosa-1(23),5,7,9,19,21-hexaene-2,2,4-trione] | > 3000 nM | + (+ is <30%) |
| CC1(C)C[C@@H]2CCCNc3cccc(n3)S(=O)(=O)NC(=O)c3ccc(-n4ccc(OCCC5(C(F)(F)F)CC5)n4)nc3N1C2 [Compound 14, (14S)-12,12-dimethyl-8-(3-{2-[1-(trifluoromethyl)cyclopropyl]ethoxy}-1H-pyrazol-1-yl)-2λ^6-thia-3,9,11,18,23-pentaazatetracyclo[17.3.1.111,14.05,10]tetracosa-1(23),5,7,9,19,21-hexaene-2,2,4-trione] | < 1000 nM | +++ (+++ is >60%) |
| CC1(C)C[C@@H]2CCCNc3cccc(n3)S(=O)(=O)NC(=O)c3ccc(-n4ccc(OC[C@@H](O)C5C6(CC6)C56CC6)n4)nc3N1C2 (single isomer, unassigned) [Compound 293] | < 1000 nM | +++ (+++ is >60%) |
| CC1CCC2CN(c3nc(N4CCN(CCC(C)(C)C)C4=O)ccc3C(=O)NS(=O)(=O)c3cccc(n3)N1)C(C)(C)C2 (centres unmarked) [Compound 210, 8-[3-(3,3-dimethylbutyl)-2-oxoimidazolidin-1-yl]-12,12,17-trimethyl-2λ^6-thia-3,9,11,18,23-pentaazatetracyclo[17.3.1.111,14.05,10]tetracosa-1(22),5,7,9,19(23),20-hexaene-2,2,4-trione] | < 1000 nM | ++ (++ is 30-60%) |
| CN1CCC[C@H]2CN(c3nc(-n4ccc(OCCC(C5CC5)C5CC5)n4)ccc3C(=O)NS(=O)(=O)c3cccc1n3)C(C)(C)C2 (single isomer, unassigned) [Compound 204, 8-[3-(3,3-dicyclopropylpropoxy)-1H-pyrazol-1-yl]-12,12,18-trimethyl-2λ^6-thia-3,9,11,18,23-pentaazatetracyclo[17.3.1.111,14.05,10]tetracosa-1(22),5,7,9,19(23),20-hexaene-2,2,4-trione] | > 3000 nM | + (+ is <30%) |
| CC1(C)C[C@@H]2CCCNc3cccc(n3)S(=O)(=O)NC(=O)c3ccc(N4CC[C@H](OCCC56CC7CC(CC(C7)C5)C6)C4=O)nc3N1C2 (single isomer, unassigned) [Compound 240] | < 1000 nM | ++ (++ is 30-60%) |
